Data as given in US20020039567A1, “Methods of treating bone or cartilage conditions by the administration of creatine” (priority 1998, published 2002).

Experiments:
[1] = system: osteoblasts (monolayer culture); assay: Mineralization (von Kossa, image analysis), monolayer osteoblast cell culture; assay type: cell-based, rat; settings: for mineralization (FIG. 3): no significant difference between groups
Method: This isolation technique is based on the ability of osteoblasts to migrate from bone onto a substratum. Parietal and frontal calvariae (4 per animal) were aseptically explanted from 6 day-old IcoIbm rats. The calvariae were placed in Tyrode's balanced salt solution, calcium and magnesium free (TESS). The periosteum was enzymatically removed with 0.05% trypsin and 0.02% collagenase A (0.76 U/mg) dissolved in TBSS (40 calvaria/20 ml). The calvariae were shaken for 70 minutes in a waterbath at 37° C. They were washed with TESS and then transferred to 60 mm culture dishes (40 calvariae/dish) containing 5 ml of 0.02% collagenase A (0.76 U/mg) in culture medium BGJb Fitton-Jackson modification and placed in the incubator for 4 hours. The calvariae were then washed with culture medium B supplemented with 10% foetal calf serum (FCS). The calvariae were transferred into 60 mm culture dishes (4 frontal and 4 parietal/dish). The growth medium supplemented with 10% FCS and 50 μg/ml ascorbate was completely changed every 48 hours. The culture was kept for 3 weeks. After 3 weeks the migrated cells were harvested. The dish was washed with TESS, and 5 ml of TESS containing 0.05% trypsin and 0.02% collagenase A (0.76 U/mg) was added. After 1 hour in the incubator, the dish was washed with culture medium BGJb supplemented with 10% FCS. The dishes containing the calvariae and cells were rinsed with serum containing media BGJb. The cells obtained were filtered through a 40 μm nylon mesh to remove bone debris and cell aggregates. The suspended cells were centrifuged at 600 g for 5 minutes. The cell pellet was resuspended in serum containing medium BGJb and centrifuged. The viability of the resuspended cells was examined by the dye exclusion of 0.4% trypan blue, and the cells were counted in a haeinocytometer. The inoculation densities were 2·10^5/10 cm^2 for monolayer and 2·10^5/30 μl for micromasses. The micromass cultures were kept for 1 hour in the incubator before 2 ml growth medium was added. All the cultures were kept at 37° C. in a humidified atmosphere of 5% CO2, 95% air. All culture media were supplemented with 50 μg/ml ascorbate. To analyze the collagen types, 60 μg/ml beta-aminopropionitrile (beta-APN) was added to the culture medium. During cell isolation and inoculation, no ascorbate was used to increase plating efficiency. No antibiotics and no beta-glycerophosphate were added. The media were completely changed every 48 hours (60 mm culture dish 5 ml; 35 mm culture dish 2 ml). The most specific method for detecting calcified matrices is the von Kossa reaction. Silver staining indicates the presence of calcium phosphate aggregated with certain organic acids. Structural details are completely obscured by the dark precipitate. Calcified tissue components are darkened in various shades from light brown to deep black, irrespective of their mineral content. [table] In the further experiments to quantify the calcification by image analysis of a center area (123 mm^2) of the culture dish, only the creatine groups were compared to the control groups, with the GPA-treated cells not further evaluated.

embryonic rat femora = assay: Embryonic rat femora wet weight in organ culture
Method: The rats were sacrificed on the 17th to 18th day of pregnancy. The embryos were aseptically removed from the uterus, and both femora were carefully dissected free into sterile TBSS under the stereo-microscope. Organ-culture of the rudiments was performed in 10 cm^2 plastic culture dishes. A Teflon carrier with a nylon mesh (20 μm pore size) was mounted in the dish, keeping the explants floating and ensuring optimal gas exchange and nutritional conditions. The right and the left femora from each animal were randomly assigned to the experimental or control group. The control groups were kept in 3 ml B with 50 μg/ml ascorbate. In the experimental group, the growth medium was supplemented with either 10 mM creatine, 20 mM creatine, 1 mM GPA, 5 mM GPA, or 10 mM GPA. The growth medium was renewed every second day until day 10. Culture was carried out at 37.5° C. and in a 5% CO2 atmosphere. At 10 days, the wet weight of each femora was determined on a microbalance. The result of each experimental femora was expressed relative to its collateral control. For the histological evaluation, the femora as fixed in 4% formaldehyde, dehydrated, and embedded in methylmethacrylate. The 6 μm sections were stained by Pentachrome-Movat.

Row | SMILES | mineralization (FIG. 3) ([1]; 10 mM creatine vs control, 3 weeks) | calcified area (FIG. 3) ([1]; 20 mM creatine vs control, 2 weeks, p<0.02, center area 123 mm^2) | mineralization (FIG. 3) ([1]; 20 mM creatine, 3 weeks, compared with 10 mM) | mineralization, mean values ([1]; creatine groups vs control, after 2 and 3 weeks) | wet weight of femora (FIG. 5) (embryonic rat femora; 10 mM creatine vs control, p<0.0005) | wet weight of femora (FIG. 5) (embryonic rat femora; 20 mM creatine vs control, p<0.001) | calcification pattern ([1]; 3 weeks, GPA groups, mineralization not limited to the nodules) | wet weight of femora (FIG. 5) (embryonic rat femora; 1 mM GPA vs control) | wet weight of femora (FIG. 5) (embryonic rat femora; 5 mM GPA vs control, p<0.0005) | wet weight of femora (FIG. 5) (embryonic rat femora; 10 mM GPA vs control, p<0.015)
1 | CN(CC(=O)O)C(=N)N [creatine] | more mineralization than the control | significantly higher | less effective | Mean values were higher | control (FIG. 5) had significantly lower wet weights than | control (FIG. 5) had significantly lower wet weights than |  |  |  | 
2 | N=C(N)NCCC(=O)O [GPA, beta-guanidinopropionic acid] |  |  |  |  |  |  | different from the control and the creatine groups | not significantly different from the control | control (FIG. 5) had significantly lower wet weights than | control (FIG. 5) had significantly lower wet weights than
